US12606541B2, “PPARg modulators and methods of use” (Eisai R&D Management Co., Ltd., priority 2020, dated 2026)
Read-outs that look alike come from different tables or passages of the source.

What was measured:
UM-UC-9 engineered cells = experiment: Cell proliferation / short-term viability assay, CellTiter-Glo 144 h; format: cell-based, human; conditions: read-out: CTGlo 144 h UMUC9.5, G150
Procedure, shortened: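 UM-UC-9 engineered assay-ready cells seeded at 500 cells/well in high-glucose DMEM/10% FBS, treated from dose-response plates, grown at 37° C, 5% CO2. CellTiter-Glo 2.0 luminescence read on day 7, with a day-0 pretreatment plate as T0 reference and DMSO wells as negative control.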

His6-TEV-PPARγ-(234-505) = target: T1, His6-TEV-PPARγ-(234-505) (Homo sapiens, UniProt P37231); experiment: TR-FRET Assay to Measure Co-R Peptide Recruitment to PPARγ; format: biochemical; conditions: Co-R peptide (SMRT-ID2) recruitment; top final concentration 20 μM; read-out: TR-FRET i-Ag; AC50
T1 construct: The His6-TEV-PPARγ-(234-505) protein for assay was expressed and purified; TEV cleavage site (N); made in house
T1 sequence (P37231 234-505): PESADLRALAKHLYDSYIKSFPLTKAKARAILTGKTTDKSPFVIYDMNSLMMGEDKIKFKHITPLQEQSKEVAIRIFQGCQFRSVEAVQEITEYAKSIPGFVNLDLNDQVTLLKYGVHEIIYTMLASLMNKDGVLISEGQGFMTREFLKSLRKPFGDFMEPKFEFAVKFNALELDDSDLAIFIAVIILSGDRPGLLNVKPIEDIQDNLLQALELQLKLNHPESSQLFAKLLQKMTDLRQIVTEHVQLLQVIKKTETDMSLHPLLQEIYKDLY
Procedure, shortened: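 His-tagged PPARγ (or controls) was preincubated with compound for 20 minutes at room temperature, then 5 nM anti-His terbium antibody and 200 nM FITC-labeled SMRT-ID2 corepressor peptide (final) were added for a further hour. TR-FRET signal was normalized to percent response using 500 nM T0070907 and DMSO controls.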

## COc1cc(-c2cc(C(=O)N3CCC(C(=O)NC4CCCn5cc(C(F)(F)F)nc54)CC34CC4)n[nH]2)c(F)cn1 (mixture of isomers) [Example 502, (S)-4-(5-(5-fluoro-2-methoxypyridin-4-yl)-1H-pyrazole-3-carbonyl)-N—((S)-2-(trifluoromethyl)-5,6,7,8-tetrahydroimidazo[1,2-a]pyridin-8-yl)-4-azaspiro[2.5]octane-7-carboxamide and (S)-4-(5-(5-fluoro-2-methoxypyridin-4-yl)-1H-pyrazole-3-carbonyl)-N—((R)-2-(trifluoromethyl)-5,6,7,8-tetrahydroimidazo[1,2-a]pyridin-8-yl)-4-azaspiro[2.5]octane-7-carboxamide]
UM-UC-9 engineered cells
  IC50: 50.6 nM
His6-TEV-PPARγ-(234-505)
  AC50: 11.8 nM

## COc1cc(-c2cc(C(=O)N3CCC(C(=O)NCC4CCNCC4(F)F)CC34CC4)n[nH]2)c(F)cn1 (mixture of isomers) [Example 511, (S)—N—(((S)-3,3-difluoropiperidin-4-yl)methyl)-4-(5-(5-fluoro-2-methoxypyridin-4-yl)-1H-pyrazole-3-carbonyl)-4-azaspiro[2.5]octane-7-carboxamide and (S)—N—(((R)-3,3-difluoropiperidin-4-yl)methyl)-4-(5-(5-fluoro-2-methoxypyridin-4-yl)-1H-pyrazole-3-carbonyl)-4-azaspiro[2.5]octane-7-carboxamide]
UM-UC-9 engineered cells
  IC50: 95.2 nM
His6-TEV-PPARγ-(234-505)
  AC50: 10.6 nM

## COc1cc(-c2cc(C(=O)N3CCC(C(=O)Nc4cnn5c4CC(O)CC5)CC34CC4)n[nH]2)c(F)cn1 (mixture of isomers) [Example 514, (S)-4-(5-(5-fluoro-2-methoxypyridin-4-yl)-1H-pyrazole-3-carbonyl)-N—((S)-5-hydroxy-4,5,6,7-tetrahydropyrazolo[1,5-a]pyridin-3-yl)-4-azaspiro[2.5]octane-7-carboxamide and (S)-4-(5-(5-fluoro-2-methoxypyridin-4-yl)-1H-pyrazole-3-carbonyl)-N—((R)-5-hydroxy-4,5,6,7-tetrahydropyrazolo[1,5-a]pyridin-3-yl)-4-azaspiro[2.5]octane-7-carboxamide]
UM-UC-9 engineered cells
  IC50: > 10000 nM
His6-TEV-PPARγ-(234-505)
  AC50: 33.7 nM

## COc1cc(-c2cc(C(=O)N3CCC(C(=O)NC45CC(CO)(C4)OC5C)CC34CC4)n[nH]2)c(F)cn1 (mixture of isomers) [Example 518, (S)-4-(5-(5-fluoro-2-methoxypyridin-4-yl)-1H-pyrazole-3-carbonyl)-N—((R)-1-(hydroxymethyl)-3-methyl-2-oxabicyclo[2.1.1]hexan-4-yl)-4-azaspiro[2.5]octane-7-carboxamide and (S)-4-(5-(5-fluoro-2-methoxypyridin-4-yl)-1H-pyrazole-3-carbonyl)-N—((S)-1-(hydroxymethyl)-3-methyl-2-oxabicyclo[2.1.1]hexan-4-yl)-4-azaspiro[2.5]octane-7-carboxamide]
UM-UC-9 engineered cells
  IC50: 4050 nM
His6-TEV-PPARγ-(234-505)
  AC50: 149 nM

## COc1cc(-c2cc(C(=O)N3CCC(C(=O)NC4CCCC(O)(C(F)(F)F)C4)CC34CC4)n[nH]2)c(F)cn1 (mixture of isomers) [Example 524]
UM-UC-9 engineered cells
  IC50: 341 nM
His6-TEV-PPARγ-(234-505)
  AC50: 128 nM

## CCC1CCC(NC(=O)C2CCN(C(=O)c3cc(-c4ccnc(OC)c4)[nH]n3)CC2)CC1 (racemic) [Example 108, N-(4-ethylcyclohexyl)-1-(5-(2-methoxypyridin-4-yl)-1H-pyrazole-3-carbonyl)piperidine-4-carboxamide]
UM-UC-9 engineered cells; Homo sapiens, UM-UC-9, 144 h
  IC50: 830 nM
His6-TEV-PPARγ-(234-505)
  AC50: 178 nM

## COc1cc(-c2cc(C(=O)N3CCC(C(=O)NC4COCc5ccccc54)CC3)n[nH]2)c(Cl)cn1 (racemic) [Example 132, 1-(5-(5-chloro-2-methoxypyridin-4-yl)-1H-pyrazole-3-carbonyl)-N-(isochroman-4-yl)piperidine-4-carboxamide]
UM-UC-9 engineered cells; Homo sapiens, UM-UC-9, 144 h
  IC50: 136 nM
His6-TEV-PPARγ-(234-505)
  AC50: 24.6 nM

## COc1cc(-c2cc(C(=O)N3CCC(C(=O)NCC4CC(C)(C)O4)CC3)n[nH]2)c(Cl)cn1 (racemic) [Example 135, 1-(5-(5-chloro-2-methoxypyridin-4-yl)-1H-pyrazole-3-carbonyl)-N-((4,4-dimethyloxetan-2-yl)methyl)piperidine-4-carboxamide]
UM-UC-9 engineered cells; Homo sapiens, UM-UC-9, 144 h
  IC50: 2650 nM
His6-TEV-PPARγ-(234-505)
  AC50: 483 nM

## COc1cc(-c2cc(C(=O)N3CCC(C(=O)NC4CCC(F)(F)C4)CC3)n[nH]2)c(Cl)cn1 (racemic) [Example 175, 1-(5-(5-chloro-2-methoxypyridin-4-yl)-1H-pyrazole-3-carbonyl)-N-(3,3-difluorocyclopentyl)piperidine-4-carboxamide]
UM-UC-9 engineered cells; Homo sapiens, UM-UC-9, 144 h
  IC50: 1640 nM
His6-TEV-PPARγ-(234-505)
  AC50: 349 nM

## COc1cc(-c2cc(C(=O)N3CCC(C(=O)NCC4COC(C)(C)O4)CC3)n[nH]2)c(Cl)cn1 (racemic) [Example 185, 1-(5-(5-chloro-2-methoxypyridin-4-yl)-1H-pyrazole-3-carbonyl)-N-((2,2-dimethyl-1,3-dioxolan-4-yl)methyl)piperidine-4-carboxamide]
UM-UC-9 engineered cells; Homo sapiens, UM-UC-9, 144 h
  IC50: 1550 nM
His6-TEV-PPARγ-(234-505)
  AC50: 735 nM

## COc1cc(-c2cc(C(=O)N3CCC(C(=O)NC4CCN(C)c5ccccc54)CC3)n[nH]2)c(Cl)cn1 (racemic) [Example 186, 1-(5-(5-chloro-2-methoxypyridin-4-yl)-1H-pyrazole-3-carbonyl)-N-(1-methyl-1,2,3,4-tetrahydroquinolin-4-yl)piperidine-4-carboxamide]
UM-UC-9 engineered cells; Homo sapiens, UM-UC-9, 144 h
  IC50: 339 nM
His6-TEV-PPARγ-(234-505)
  AC50: 202 nM

## COc1cc(-c2cc(C(=O)N3CCC(C(=O)NC4CCCc5cnccc54)CC3)n[nH]2)c(Cl)cn1 (racemic) [Example 191, 1-(5-(5-chloro-2-methoxypyridin-4-yl)-1H-pyrazole-3-carbonyl)-N-(5,6,7,8-tetrahydroisoquinolin-5-yl)piperidine-4-carboxamide]
UM-UC-9 engineered cells; Homo sapiens, UM-UC-9, 144 h
  IC50: 2010 nM
His6-TEV-PPARγ-(234-505)
  AC50: 838 nM

## COc1cc(-c2cc(C(=O)N3CCC(C(=O)NC4CCOc5ccc(F)cc54)CC3)n[nH]2)c(Cl)cn1 (racemic) [Example 195, 1-(5-(5-chloro-2-methoxypyridin-4-yl)-1H-pyrazole-3-carbonyl)-N-(6-fluorochroman-4-yl)piperidine-4-carboxamide]
UM-UC-9 engineered cells; Homo sapiens, UM-UC-9, 144 h
  IC50: 348 nM
His6-TEV-PPARγ-(234-505)
  AC50: 212 nM

## COc1cc(-c2cc(C(=O)N3CCC(C(=O)NC4CCN(c5ccccc5)C4=O)CC3)n[nH]2)c(Cl)cn1 (racemic) [Example 207, 1-(5-(5-chloro-2-methoxypyridin-4-yl)-1H-pyrazole-3-carbonyl)-N-(2-oxo-1-phenylpyrrolidin-3-yl)piperidine-4-carboxamide]
UM-UC-9 engineered cells; Homo sapiens, UM-UC-9, 144 h
  IC50: 5670 nM
His6-TEV-PPARγ-(234-505)
  AC50: 889 nM

## COc1cc(-c2cc(C(=O)N3CCC(C(=O)NC4COC(C)(C)C4)CC3)n[nH]2)c(Cl)cn1 (racemic) [Example 213, 1-(5-(5-chloro-2-methoxypyridin-4-yl)-1H-pyrazole-3-carbonyl)-N (5,5-dimethyltetrahydrofuran-3-yl)piperidine-4-carboxamide]
UM-UC-9 engineered cells; Homo sapiens, UM-UC-9, 144 h
  IC50: 1640 nM
His6-TEV-PPARγ-(234-505)
  AC50: 571 nM

## COc1cc(-c2cc(C(=O)N3CCC(C(=O)NCC4CC(F)(F)CO4)CC3)n[nH]2)c(Cl)cn1 (racemic) [Example 220, 1-(5-(5-chloro-2-methoxypyridin-4-yl)-1H-pyrazole-3-carbonyl)-N-((4,4-difluorotetrahydrofuran-2-yl)methyl)piperidine-4-carboxamide]
UM-UC-9 engineered cells; Homo sapiens, UM-UC-9, 144 h
  IC50: 2130 nM
His6-TEV-PPARγ-(234-505)
  AC50: 286 nM

## COc1cc(-c2cc(C(=O)N3CCC(C(=O)NC4CCN(c5ccccc5F)C4)CC3)n[nH]2)c(Cl)cn1 (racemic) [Example 222, 1-(5-(5-chloro-2-methoxypyridin-4-yl)-1H-pyrazole-3-carbonyl)-N-(1-(2-fluorophenyl)pyrrolidin-3-yl)piperidine-4-carboxamide]
UM-UC-9 engineered cells; Homo sapiens, UM-UC-9, 144 h
  IC50: 208 nM
His6-TEV-PPARγ-(234-505)
  AC50: 18.5 nM

## COc1cc(-c2cc(C(=O)N3CCC(C(=O)NC4CCCc5nc(C)ncc54)CC3)n[nH]2)c(Cl)cn1 (racemic) [Example 224, 1-(5-(5-chloro-2-methoxypyridin-4-yl)-1H-pyrazole-3-carbonyl)-N-(2-methyl-5,6,7,8-tetrahydroquinazolin-5-yl)piperidine-4-carboxamide]
UM-UC-9 engineered cells; Homo sapiens, UM-UC-9, 144 h
  IC50: 5180 nM
His6-TEV-PPARγ-(234-505)
  AC50: 554 nM

## COc1cc(-c2cc(C(=O)N3CCC(C(=O)NC4CN(C)Cc5ccccc54)CC3)n[nH]2)c(Cl)cn1 (racemic) [Example 227, 1-(5-(5-chloro-2-methoxypyridin-4-yl)-1H-pyrazole-3-carbonyl)-N-(2-methyl-1,2,3,4-tetrahydroisoquinolin-4-yl)piperidine-4-carboxamide]
UM-UC-9 engineered cells; Homo sapiens, UM-UC-9, 144 h
  IC50: 5960 nM
His6-TEV-PPARγ-(234-505)
  AC50: 947 nM

## COc1cc(-c2cc(C(=O)N3CCC(C(=O)NC4CS(=O)(=O)N(C)c5ccccc54)CC3)n[nH]2)c(Cl)cn1 (racemic) [Example 231, 1-(5-(5-chloro-2-methoxypyridin-4-yl)-1H-pyrazole-3-carbonyl)-N-(1-methyl-2,2-dioxido-3,4-dihydro-1H-benzo[c][1,2]thiazin-4-yl)piperidine-4-carboxamide]
UM-UC-9 engineered cells; Homo sapiens, UM-UC-9, 144 h
  IC50: 5440 nM
His6-TEV-PPARγ-(234-505)
  AC50: 999 nM

## COc1cc(-c2cc(C(=O)N3CCC(C(=O)NC4CCCc5c4ccc(=O)n5C)CC3)n[nH]2)c(Cl)cn1 (racemic) [Example 234, 1-(5-(5-chloro-2-methoxypyridin-4-yl)-1H-pyrazole-3-carbonyl)-N-(1-methyl-2-oxo-1,2,5,6,7,8-hexahydroquinolin-5-yl)piperidine-4-carboxamide]
UM-UC-9 engineered cells; Homo sapiens, UM-UC-9, 144 h
  IC50: > 10000 nM
His6-TEV-PPARγ-(234-505)
  AC50: 927 nM
